In US20070179810A1, “Controls for antimicrobial use and infection” (priority 2006, published 2007):

What was measured:
non-urinary E. coli = assay: Susceptibility of non-urinary E. coli isolates (annual antibiogram); assay type: cell-based; settings: 548 isolates
Text: (§1) The Microbiology Department collected data on the susceptibility of major pathogens and published an annual antibiograrn, a copy of which was placed in each hospital chart as well as sent to all physicians. […] T tests were used in determining statistical significance between the years.

Proteus mirahilis = assay: Susceptibility of Proteus mirabilis isolates (annual antibiogram); assay type: cell-based; settings: 133 isolates; 2000 vs 2002 and 2003
Text: as §1

Klebsiella pneumoniae = assay: Susceptibility of hospital Klebsiella pneumoniae isolates (annual antibiogram); assay type: cell-based; settings: for Change in susceptibility of Klebsiella pneumoniae: 218 isolates, 2000 vs 2002 and 2003, T test; for Percent Susceptible in 2000 / Percent Susceptible in 2002 / Percent Susceptible in 2003: K. pneumoniae isolates; for Percent Susceptible in 2000: 2000, year prior to program; for Percent Susceptible in 2002 / Percent Susceptible in 2003: * = statistically significant change compared to 2000
Text: as §1

[1] = test system: non-urinary Pseuclomonas aeruginosa; assay: Susceptibility of non-urinary Pseudomonas aeruginosa isolates (annual antibiogram); assay type: cell-based; settings: 338 isolates; 2000 vs 2002 and 2003
Text: as §1

Serratia marcescens = assay: Susceptibility of Serratia marcescens isolates (annual antibiogram); assay type: cell-based; settings: 109 isolates; 2000 vs 2002 and 2003
Text: as §1

Enterobucter cloucue = assay: Susceptibility of Enterobacter cloacae isolates (annual antibiogram); assay type: cell-based; settings: 134 isolates; 2000 vs 2002 and 2003
Text: as §1

urinary E. coli = assay: Susceptibility of urinary E. coli isolates (annual antibiogram); assay type: cell-based; settings: 1615 isolates
Text: as §1

Pseudomonas aeruginosa = test system: Pseudomonas aeruginosa
Text: as §1

[2] = 2000, last year before the study

| Molecule | Change in susceptibility of Klebsiella pneumoniae (Klebsiella pneumoniae) | Percent Susceptible in 2000 (Klebsiella pneumoniae) | Percent Susceptible in 2002 (Klebsiella pneumoniae) | Percent Susceptible in 2003 (Klebsiella pneumoniae) | other results |
| --- | --- | --- | --- | --- | --- |
| CO/N=C(\C(=O)N[C@@H]1C(=O)N2C(C(=O)[O-])=C(C[N+]3(C)CCCC3)CS[C@H]12)c1csc(N)n1 [Cefepime] | did not reach statistical significance | 94% | 98% | 98% | Susceptibility of non-urinary E. coli, before (non-urinary E. coli; [2]): 100%; Susceptibility of non-urinary E. coli, after (non-urinary E. coli; during the study (2002 and 2003), significant decrease): 98%; Change in susceptibility of Proteus mirabilis (Proteus mirahilis): no statistically significant change; Change in susceptibility of non-urinary Pseudomonas aeruginosa [1]: no statistically significant change; Change in susceptibility of Serratia marcescens (Serratia marcescens): no statistically significant change |
| CC(C)(O/N=C(\C(=O)N[C@@H]1C(=O)N2C(C(=O)[O-])=C(C[n+]3ccccc3)CS[C@H]12)c1csc(N)n1)C(=O)O [Ceftazidime] | statistically significant increase in susceptibility | 85% | 99* Percent | 96* Percent | Change in susceptibility of non-urinary E. coli (non-urinary E. coli; 2000 vs 2002 and 2003): not significant; Change in susceptibility of Proteus mirabilis (Proteus mirahilis): no statistically significant change; Change in susceptibility of Enterobacter cloacae (Enterobucter cloucue): no statistically significant change; Change in susceptibility of non-urinary Pseudomonas aeruginosa [1]: no statistically significant change; Susceptibility of urinary E. coli, before (urinary E. coli; [2]): 100%; Susceptibility of urinary E. coli, after (urinary E. coli; during the study (2002 and 2003), significant fall): 98%; Change in susceptibility of Serratia marcescens (Serratia marcescens): no statistically significant change |
| CO/N=C(\C(=O)N[C@@H]1C(=O)N2C(C(=O)O)=C(CSc3nc(=O)c(=O)[nH]n3C)CS[C@H]12)c1csc(N)n1 [Ceftriaxone] | statistically significant increase in susceptibility | 85% | 98* Percent | 96* Percent |  |
| CO/N=C(\C(=O)N[C@@H]1C(=O)N2C(C(=O)O)=C(COC(N)=O)CS[C@H]12)c1ccco1 [Cefuroxime] | statistically significant increase in susceptibility | 78% | 94* Percent | 93* Percent |  |
| C[C@H]1COc2c(N3CCN(C)CC3)c(F)cc3c(=O)c(C(=O)O)cn1c23 [Levofloxacin] |  | 82% | 99* Percent | 96* Percent |  |
| NC[C@H]1O[C@H](O[C@H]2[C@H](O)[C@@H](O[C@H]3O[C@H](CO)[C@@H](O)[C@H](N)[C@H]3O)[C@H](N)C[C@@H]2N)[C@H](N)C[C@@H]1O [Tobramycin] | statistically significant increase in susceptibility | 90% | 99* Percent | 96% |  |
| C[C@@H](O)[C@H]1C(=O)N2C(C(=O)O)=C(SCCN=CN)C[C@H]12 [imipenem] |  |  |  |  | Pseudomonas aeruginosa susceptibility in 2000 (Pseudomonas aeruginosa; 2000): 93%; Pseudomonas aeruginosa susceptibility in 2002 (Pseudomonas aeruginosa; 2002, significant decrease): 83%; Pseudomonas aeruginosa susceptibility in 2003 (Pseudomonas aeruginosa; 2003): 91% |
| Gentamicin | statistically significant increase in susceptibility | 83% | 99* Percent | 96% |  |
| Trimethoprirn/Sulfa | statistically significant increase in susceptibility | 86% | 97* Percent | 93% |  |
